According to PubChem BioAssay (NCI):
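A five-concentration, 48-hour dose response in 96-well plates underlies each endpoint, interpolated linearly between surrounding concentrations. Definition used: TGI = concentration required for complete inhibition of growth.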

How the values were obtained:
Assay in all cases: NCI anticancer screen, dose series, 48 h
RXF 393 renal = system: RXF 393 renal
HT29 colon = system: HT29 colon
OVCAR-4 ovarian = system: OVCAR-4 ovarian
SK-MEL-5 melanoma = system: SK-MEL-5 melanoma
OVCAR-8 ovarian = system: OVCAR-8 ovarian
M14 melanoma = system: M14 melanoma
UACC-62 melanoma = system: UACC-62 melanoma
HCT-116 colon = system: HCT-116 colon
HOP-62 NSCLC = system: HOP-62 NSCLC
SR leukemia = system: SR leukemia
786-0 renal = system: 786-0 renal
SN12C renal = system: SN12C renal
EKVX NSCLC = system: EKVX NSCLC
SK-MEL-28 melanoma = system: SK-MEL-28 melanoma
U251 CNS = system: U251 CNS
MDA-N = system: MDA-N
HL-60(TB) leukemia = system: HL-60(TB) leukemia
RPMI-8226 leukemia = system: RPMI-8226 leukemia
A549 NSCLC = system: A549 NSCLC
OVCAR-5 ovarian = system: OVCAR-5 ovarian
HOP-92 NSCLC = system: HOP-92 NSCLC
NCI-H460 lung = system: NCI-H460 lung
SK-MEL-2 melanoma = system: SK-MEL-2 melanoma
K-562 leukemia = system: K-562 leukemia
CAKI-1 renal = system: CAKI-1 renal
NCI-H23 lung = system: NCI-H23 lung
IGROV1 ovarian = system: IGROV1 ovarian
SF-268 CNS = system: SF-268 CNS
NCI/ADR-RES ovarian = system: NCI/ADR-RES ovarian
MALME-3M melanoma = system: MALME-3M melanoma
SF-295 CNS = system: SF-295 CNS
SF-539 CNS = system: SF-539 CNS
PC-3 prostate = system: PC-3 prostate
OVCAR-3 ovarian = system: OVCAR-3 ovarian
ACHN renal = system: ACHN renal
SNB-19 CNS = system: SNB-19 CNS
SNB-75 CNS = system: SNB-75 CNS
SK-OV-3 ovarian = system: SK-OV-3 ovarian
TK-10 renal = system: TK-10 renal
UACC-257 melanoma = system: UACC-257 melanoma
CCRF-CEM leukemia = system: CCRF-CEM leukemia
COLO 205 colon = system: COLO 205 colon
NCI-H522 lung = system: NCI-H522 lung
HCC-2998 colon = system: HCC-2998 colon
HCT-15 colon = system: HCT-15 colon
MDA-MB-231 breast = system: MDA-MB-231 breast
DU-145 prostate = system: DU-145 prostate
HS 578T breast = system: HS 578T breast
BT-549 breast = system: BT-549 breast
T-47D breast = system: T-47D breast
UO-31 renal = system: UO-31 renal
MOLT-4 leukemia = system: MOLT-4 leukemia
MCF7 breast = system: MCF7 breast
MDA-MB-435 = system: MDA-MB-435
SW-620 colon = system: SW-620 colon
KM12 colon = system: KM12 colon
A498 renal = system: A498 renal
LOX IMVI melanoma = system: LOX IMVI melanoma
NCI-H226 lung = system: NCI-H226 lung

C=C(C)C(CC=C(C)C)Cc1c(O)cc(OC)c2c1OC(c1ccc(O)cc1O)C(O)C2=O (centres undefined)
TGI (RXF 393 renal): 43.6 µM | TGI (HT29 colon): 38.2 µM | TGI (OVCAR-4 ovarian): 38.4 µM | TGI (SK-MEL-5 melanoma): 33.1 µM | TGI (OVCAR-8 ovarian): 31.2 µM | TGI (M14 melanoma): 36.5 µM | TGI (UACC-62 melanoma): 36.4 µM | TGI (HCT-116 colon): 34.5 µM | TGI (HOP-62 NSCLC): 31 µM | TGI (SR leukemia): > 100 µM | TGI (786-0 renal): 32.3 µM | TGI (SN12C renal): 35.2 µM | TGI (EKVX NSCLC): 31.1 µM | TGI (SK-MEL-28 melanoma): 56.2 µM | TGI (U251 CNS): 27.6 µM | TGI (MDA-N): 28.1 µM | TGI (HL-60(TB) leukemia): > 100 µM | TGI (RPMI-8226 leukemia): > 100 µM | TGI (A549 NSCLC): 39.4 µM | TGI (OVCAR-5 ovarian): 32.4 µM | TGI (HOP-92 NSCLC): 28 µM | TGI (NCI-H460 lung): 33.9 µM | TGI (SK-MEL-2 melanoma): 34.7 µM | TGI (K-562 leukemia): > 100 µM | TGI (CAKI-1 renal): 26.6 µM | TGI (NCI-H23 lung): 33.6 µM | TGI (IGROV1 ovarian): 28.1 µM | TGI (SF-268 CNS): 61.1 µM | TGI (NCI/ADR-RES ovarian): 55.8 µM | TGI (MALME-3M melanoma): 31.8 µM | TGI (SF-295 CNS): 28.2 µM | TGI (SF-539 CNS): 31.4 µM | TGI (PC-3 prostate): 26.3 µM | TGI (OVCAR-3 ovarian): 34.8 µM | TGI (ACHN renal): 43.2 µM | TGI (SNB-19 CNS): 29.3 µM | TGI (SNB-75 CNS): 31.5 µM | TGI (SK-OV-3 ovarian): 30.5 µM | TGI (TK-10 renal): 38.4 µM | TGI (UACC-257 melanoma): 32.1 µM | TGI (CCRF-CEM leukemia): > 100 µM | TGI (COLO 205 colon): 30 µM | TGI (NCI-H522 lung): 34.2 µM | TGI (HCC-2998 colon): 30.6 µM | TGI (HCT-15 colon): 31.1 µM | TGI (MDA-MB-231 breast): 34.1 µM | TGI (DU-145 prostate): 32.4 µM | TGI (HS 578T breast): 79.4 µM | TGI (BT-549 breast): 28.5 µM | TGI (T-47D breast): 32.4 µM | TGI (UO-31 renal): 29.5 µM | TGI (MOLT-4 leukemia): > 100 µM | TGI (MCF7 breast): 27 µM | TGI (MDA-MB-435): 35.9 µM | TGI (SW-620 colon): 30.3 µM | TGI (KM12 colon): 24.6 µM | TGI (A498 renal): 30.7 µM | TGI (LOX IMVI melanoma): 36.1 µM | TGI (NCI-H226 lung): 44.7 µM
